Reference: the CheMixHub viscosity set

Experiment: xn = mol fraction of the nth substance listed

NCCO + CCCCCCO
viscosity [mPa·s], 101.3 kPa
Conditions | x1 = 0.1 | x1 = 0.2 | x1 = 0.3 | x1 = 0.4 | x1 = 0.5 | x1 = 0.6 | x1 = 0.7 | x1 = 0.8 | x1 = 0.9
303.15 K | 4.07 | 4.48 | 5.04 | 5.68 | 6.54 | 7.62 | 8.84 | 10.4 | 12.3
313.15 K | 3.08 | 3.34 | 3.72 | 4.15 | 4.7 | 5.41 | 6.17 | 7.18 | 8.31
323.15 K | 2.37 | 2.57 | 2.84 | 3.13 | 3.51 | 3.98 | 4.49 | 5.16 | 5.88

C1CCCC1 + CCCCCO
101.3 kPa
Conditions | viscosity [mPa·s]
298.15 K, x1 = 0.0498 | 3.211
298.15 K, x1 = 0.0796 | 3.013
298.15 K, x1 = 0.1294 | 2.679
298.15 K, x1 = 0.1855 | 2.343
298.15 K, x1 = 0.2386 | 2.037
298.15 K, x1 = 0.2579 | 1.924
298.15 K, x1 = 0.2645 | 1.883
298.15 K, x1 = 0.2919 | 1.755
298.15 K, x1 = 0.3012 | 1.709
298.15 K, x1 = 0.351 | 1.481
298.15 K, x1 = 0.3712 | 1.406
298.15 K, x1 = 0.4221 | 1.221
298.15 K, x1 = 0.4544 | 1.118
298.15 K, x1 = 0.5073 | 0.992
298.15 K, x1 = 0.5388 | 0.926
298.15 K, x1 = 0.569 | 0.869
298.15 K, x1 = 0.596 | 0.827
298.15 K, x1 = 0.6189 | 0.79
298.15 K, x1 = 0.6343 | 0.771
298.15 K, x1 = 0.6621 | 0.739
298.15 K, x1 = 0.6893 | 0.707
298.15 K, x1 = 0.7282 | 0.685
298.15 K, x1 = 0.774 | 0.663
298.15 K, x1 = 0.8207 | 0.613
298.15 K, x1 = 0.8699 | 0.566
298.15 K, x1 = 0.9192 | 0.515
298.15 K, x1 = 0.9698 | 0.447
308.15 K, x1 = 0.0419 | 2.415
308.15 K, x1 = 0.1319 | 2.057
308.15 K, x1 = 0.2149 | 1.783
308.15 K, x1 = 0.2986 | 1.542
308.15 K, x1 = 0.3735 | 1.35
308.15 K, x1 = 0.4 | 1.287
308.15 K, x1 = 0.4437 | 1.19
308.15 K, x1 = 0.4804 | 1.118
308.15 K, x1 = 0.5152 | 1.049
308.15 K, x1 = 0.6882 | 0.817
308.15 K, x1 = 0.7025 | 0.798
308.15 K, x1 = 0.7196 | 0.781
308.15 K, x1 = 0.7454 | 0.752
308.15 K, x1 = 0.7726 | 0.727
308.15 K, x1 = 0.809 | 0.681
308.15 K, x1 = 0.8542 | 0.617
308.15 K, x1 = 0.9094 | 0.517
308.15 K, x1 = 0.955 | 0.418
318.15 K, x1 = 0.1213 | 1.768
318.15 K, x1 = 0.1891 | 1.573
318.15 K, x1 = 0.2652 | 1.36
318.15 K, x1 = 0.34 | 1.171
318.15 K, x1 = 0.4015 | 1.035
318.15 K, x1 = 0.4409 | 0.953
318.15 K, x1 = 0.4863 | 0.864
318.15 K, x1 = 0.5184 | 0.807
318.15 K, x1 = 0.5402 | 0.775
318.15 K, x1 = 0.5588 | 0.74
318.15 K, x1 = 0.6063 | 0.67
318.15 K, x1 = 0.665 | 0.593
318.15 K, x1 = 0.7127 | 0.537
318.15 K, x1 = 0.7882 | 0.467
318.15 K, x1 = 0.8688 | 0.405
318.15 K, x1 = 0.9451 | 0.359

C=CCc1ccc2c(c1)OCO2 + CCCCCOC(C)=O
298.15 K, 101 kPa
Conditions | viscosity [mPa·s]
x1 = 0.053 | 0.833
x1 = 0.232 | 1.01

c1ccc(-c2ccccc2)cc1 + CCCCCOC(C)=O
298.15 K, 101 kPa
Conditions | viscosity [mPa·s]
x1 = 0.0249 | 0.803
x1 = 0.0367 | 0.8121

CCC(=O)CC + CCCCN
303.15 K, 101.33 kPa
Conditions | viscosity [mPa·s]
x2 = 0.1145 | 0.519
x2 = 0.2006 | 0.59
x2 = 0.3211 | 0.678
x2 = 0.417 | 0.735
x2 = 0.5421 | 0.784
x2 = 0.7264 | 0.752
x2 = 0.8234 | 0.681
x2 = 0.8922 | 0.62

CCC(=O)CC + CCCCN(CCCC)CCCC
viscosity [mPa·s], 101 kPa
Conditions | 298.15 K | 303.15 K | 308.15 K
x2 = 0.05 | 0.468 | 0.442 | 0.419
x2 = 0.1004 | 0.498 | 0.47 | 0.444
x2 = 0.1502 | 0.533 | 0.502 | 0.473
x2 = 0.2006 | 0.566 | 0.531 | 0.502
x2 = 0.25 | 0.6 | 0.563 | 0.529
x2 = 0.2996 | 0.636 | 0.595 | 0.559
x2 = 0.3995 | 0.71 | 0.662 | 0.621
x2 = 0.4998 | 0.79 | 0.734 | 0.684
x2 = 0.6004 | 0.874 | 0.809 | 0.752
x2 = 0.7005 | 0.965 | 0.889 | 0.824
x2 = 0.7998 | 1.065 | 0.978 | 0.901
x2 = 0.8462 | 1.109 | 1.016 | 0.934
x2 = 0.8953 | 1.16 | 1.06 | 0.976
x2 = 0.9489 | 1.212 | 1.106 | 1.017

C1CCCC1 + CCCCO
101 kPa
Conditions | viscosity [mPa·s]
298.15 K, x1 = 0.0281 | 2.401
298.15 K, x1 = 0.0729 | 2.23
298.15 K, x1 = 0.1366 | 1.972
298.15 K, x1 = 0.2131 | 1.703
298.15 K, x1 = 0.268 | 1.533
298.15 K, x1 = 0.2928 | 1.448
298.15 K, x1 = 0.3216 | 1.358
298.15 K, x1 = 0.3809 | 1.205
298.15 K, x1 = 0.4426 | 1.035
298.15 K, x1 = 0.5285 | 0.8835
298.15 K, x1 = 0.5981 | 0.7551
298.15 K, x1 = 0.6858 | 0.6361
298.15 K, x1 = 0.7617 | 0.5622
298.15 K, x1 = 0.7948 | 0.5316
298.15 K, x1 = 0.8094 | 0.5193
298.15 K, x1 = 0.8797 | 0.4629
308.15 K, x1 = 0.004 | 1.958
308.15 K, x1 = 0.1227 | 1.614
308.15 K, x1 = 0.1427 | 1.583
308.15 K, x1 = 0.1774 | 1.556
308.15 K, x1 = 0.2185 | 1.381
308.15 K, x1 = 0.2585 | 1.358
308.15 K, x1 = 0.3367 | 1.164
308.15 K, x1 = 0.421 | 1.009
308.15 K, x1 = 0.494 | 0.8822
308.15 K, x1 = 0.5979 | 0.6995
308.15 K, x1 = 0.7214 | 0.5435
308.15 K, x1 = 0.8382 | 0.4404
308.15 K, x1 = 0.9315 | 0.3813
308.15 K, x1 = 0.9658 | 0.3641
308.15 K, x1 = 0.9781 | 0.3599

CCC(=O)CC + CCCCOC(C)=O
viscosity [mPa·s], 101 kPa
Conditions | x2 = 0.0808 | x2 = 0.1652 | x2 = 0.2542 | x2 = 0.349 | x2 = 0.4451 | x2 = 0.5459 | x2 = 0.65 | x2 = 0.7613 | x2 = 0.8771
298.15 K | 0.478 | 0.5 | 0.523 | 0.543 | 0.558 | 0.573 | 0.59 | 0.614 | 0.645
303.15 K | 0.445 | 0.464 | 0.485 | 0.5 | 0.513 | 0.526 | 0.541 | 0.562 | 0.589
308.15 K | 0.419 | 0.437 | 0.455 | 0.471 | 0.483 | 0.495 | 0.509 | 0.528 | 0.554
313.15 K | 0.395 | 0.411 | 0.429 | 0.441 | 0.452 | 0.461 | 0.474 | 0.491 | 0.514
